Test results from publication PMC10976043, “Function and Mechanism of Antiviral Wasp Venom Peptide Protopolybia-MP III and Its Derivatives against HSV-1” (Toxins, 2024).
Ends that are not written are not given here.

Columns and labels:
[1] = test system: HSV-1 virion; assay: Virion integrity assay (ultracentrifugation/gB Western blotting, electron microscopy); design: species or system herpes simplex virus type 1; conditions: 20 μg/mL with HSV-1 at 37 °C 1 h
Method: Figure 5 Protopolybia-MP III destroys the integrity of HSV-1 free virions. (A) Schematic diagram for studying the effect of Protopolybia-MP III on HSV-1 free virion infectivity. (B) Effects of Protopolybia-MP III on HSV-1 free virion infectivity at different temperatures. HSV-1 (MOI = 1) and 20 μg/mL Protopolybia-MP III or PBS were coincubated at 4 °C, 22 °C, and 37 °C for 1 h, and then Vero cells were infected as described in (A). After 24 h, cells were collected, and intracellular HSV-1 RNA was analyzed by qPCR. (C) Effects of different concentrations of Protopolybia-MP III on HSV-1 free virion infectivity. HSV-1 (MOI = 1) and 1 or 10 μg/mL Protopolybia-MP III or PBS were coincubated at 37 °C for 1 h, and then Vero cells were infected as described in (A). After 24 h, cells were collected, and intracellular HSV-1 RNA was analyzed by qPCR. (D,E) The effect of Protopolybia-MP III on HSV-1 free virion integrity. HSV-1 and 20 μg/mL Protopolybia-MP III or PBS were coincubated at 37 °C for 1 h. Then, after centrifuging for 2 h at 40,000 rpm at 4 °C, the contents of HSV-1 gB in the supernatant and precipitate were detected by Western blotting (D). In addition, the structure of HSV-1 virions after incubation with Protopolybia-MP III was observed by electron microscopy. The red arrow points to a destroyed HSV-1 virion. *** p < 0.001.
HSV-1 virions were coincubated with PBS or 20 μg/mL Protopolybia-MP III at 37 °C for 1 h. Then, the virions were separated by ultracentrifugation at 40,000 rpm at 4 °C for 2 h in a Beckman SW41 rotor (Beckman Coulter, Brea, CA, USA). The supernatant was collected and lyophilized using a vacuum freeze dryer (Labconco FreeZone6L, Kansas City, MO, USA). HSV-1 glycoprotein gB from both the precipitate and supernatant components were measured by Western blotting. In addition, after HSV-1 was coincubated with PBS or 20 μg/mL Protopolybia-MP III at 37 °C for 1 h, samples were placed on 200-mesh var/carbon-coated copper grids by dipping the grids into the virion sample solutions. […]

[2] = test system: HSV-1; assay: HSV-1 life cycle stage assay (different modes of peptide treatment), qPCR; assay type: cell-based, herpes simplex virus type 1
Method: To determine the exact step at which Protopolybia-MP III blocks HSV-1 infection, we conducted an experiment with different modes of peptide treatment in Vero cells (Figure 3A). […] Then, we detected the protective effect of Protopolybia-MP III by pretreating Vero cells with 20 μg/mL Protopolybia-MP III before HSV-1 infection.
Figure 3 Protopolybia-MP III inhibits multiple phases of the HSV-1 life cycle. (A) Schematic diagram for studying stage at which Protopolybia-MP III acts on the HSV-1 life cycle. (B) Effects of Protopolybia-MP III on the attachment, entry/fusion, and post-entry stages of the HSV-1 life cycle. Vero cells were infected with HSV-1 at an MOI of 1 and treated with 20 μg/mL Protopolybia-MP III as described in (A). After 24 h, cells were collected, and intracellular HSV-1 RNA was analyzed by qPCR. (C) The effect of Protopolybia-MP III on cell protection against HSV-1 infection. Vero cells were treated with 20 μg/mL Protopolybia-MP III or PBS and infected with HSV-1 at an MOI of 1 as described in (A). After 24 h, the cells were collected, and intracellular HSV-1 RNA was analyzed by qPCR. ns, no significance. ** p < 0.01. *** p < 0.001.
Cells were collected and lysed using TRIzol reagent (Beyotime Biotechnology, Shanghai, China) to release the intracellular total RNA, followed by precipitation with isopropanol. The first-strand cDNA was reverse-transcribed by the HiScript III 1st Strand cDNA Synthesis Kit (+gDNA wiper) (Vazyme, Nanjing, China). The cDNA was quantitated by qPCR with primers using Taq Pro Universal SYBR qPCR Master Mix (Vazyme). The HSV-1 primers were 5′-[…]-3′ (sense) and 5′-[…]-3′ (antisense). The monkey GAPDH primers were 5′-[…]-3′ (sense) and 5′-[…]-3′ (antisense). The human GAPDH primers were 5′-[…]-3′ (sense) and 5′-[…]-3′ (antisense). qPCR experiments were performed on a Bio-Rad CFX96 Touch (Pleasanton, CA, USA) according to the manufacturer’s instructions.

[3] = test system: human corneal epithelial cells (HCEC); assay: CCK8 cytotoxicity assay, HCEC; assay type: cell-based; conditions: 40 μg/mL, 24 h
Method: Figure 2 Protopolybia-MP III inhibits HSV-1 replication in human cell lines. (A) Cytotoxicities of Protopolybia-MP III to A549 cells, HCEC, and SK-N-MC. Cells were treated with Protopolybia-MP III at different concentrations or PBS for 24 h, and then cytotoxicities were determined by the CCK8 assay. (B,C) Suppression of intracellular HSV-1 infection by Protopolybia-MP III in A549 cells, HCEC, and SK-N-MC. Cells were preincubated with Protopolybia-MP III at different concentrations or PBS for 1 h and then infected with HSV-1 at an MOI of 1. After 24 h, the cells were collected. Intracellular HSV-1 RNA was analyzed by qPCR (B), and intracellular HSV-1 ICP0 protein expression levels were analyzed by Western blotting (C). (D) Inhibition of Protopolybia-MP III on extracellular HSV-1 particles in A549 cells, HCEC, and SK-N-MC. Cells were treated with Protopolybia-MP III at different concentrations or PBS for 24 h, and then the supernatant was collected and evaluated in a plaque formation assay. * p < 0.05. ** p < 0.01. *** p < 0.001.
Cells were seeded in a 96-well plate (7000–10,000 cells per well) and cultured at 37 °C overnight. Peptides in a series of concentrations were added to the medium, and cells were then incubated at 37 °C for 24 h. […] Finally, the absorbance was measured at 450 nm using a microplate reader (BioTek, Winooski, VT, USA).

[4] = ultracentrifugation 40,000 rpm 2 h 4 °C, Western blotting
[5] = Vero cells, 20 μg/mL, HSV-1 MOI 1, 24 h, qPCR of HSV-1 RNA

“INWLKLGKAVIDAL-NH2 [Protopolybia-MP III]” was tested, and the “HSV-1 virion structure by electron microscopy” value ([1]; negative staining) was “destroyed”, the “gB content in the precipitate compared with PBS treatment” value [1, 4] was “significantly reduced” and the “gB content in the supernatant compared with PBS treatment” value [1, 4] was “increased”. The “protection of cells from HSV-1 infection (pretreatment)” value ([2]; Vero cells pretreated with 20 μg/mL before HSV-1 infection, MOI 1, 24 h, qPCR) was “almost no effect”, the “inhibitory rate, attachment stage of the HSV-1 life cycle” value [2, 5] was 57% and the “inhibitory rate, entry/fusion stage of the HSV-1 life cycle” value [2, 5] was 84%. The “inhibitory rate, post-entry stage of the HSV-1 life cycle” value [2, 5] was 66% and the “cytotoxicity to HCEC” value [3] was “almost nontoxic”.
